Laboratory results reported in article PMC9127252, “Synthesis of sulfur karrikin bioisosteres as potential neuroprotectives” (Beilstein Journal of Organic Chemistry, 2022).

Assays:
AChE = test system: AChE; parameters: method as in PMID 31014820; settings: cited from earlier work; for inhibition effects on AChE: in words
MAO-B = test system: MAO-B; parameters: method as in PMID 31014820; settings: cited from earlier work
seed germination = test system: seed germination; parameters: method as in doi:10.1016/j.sajb.2013.12.003; settings: compared with KAR1; cited from earlier work
[1] = target: T1, AChE from Electrophorus electricus (Electrophorus electricus, UniProt O42275); test: biochemical; settings: for AChE residual activity at 10 µM (% of untreated): 10 µM compound, t = 25 min, triplicates, mean ± SD; for inhibition at 10 µM: read-out: AChE inhibition at 10 µM screening concentration
T1 construct: purchased Sigma-Aldrich, Germany
T1 sequence (O42275 24-633): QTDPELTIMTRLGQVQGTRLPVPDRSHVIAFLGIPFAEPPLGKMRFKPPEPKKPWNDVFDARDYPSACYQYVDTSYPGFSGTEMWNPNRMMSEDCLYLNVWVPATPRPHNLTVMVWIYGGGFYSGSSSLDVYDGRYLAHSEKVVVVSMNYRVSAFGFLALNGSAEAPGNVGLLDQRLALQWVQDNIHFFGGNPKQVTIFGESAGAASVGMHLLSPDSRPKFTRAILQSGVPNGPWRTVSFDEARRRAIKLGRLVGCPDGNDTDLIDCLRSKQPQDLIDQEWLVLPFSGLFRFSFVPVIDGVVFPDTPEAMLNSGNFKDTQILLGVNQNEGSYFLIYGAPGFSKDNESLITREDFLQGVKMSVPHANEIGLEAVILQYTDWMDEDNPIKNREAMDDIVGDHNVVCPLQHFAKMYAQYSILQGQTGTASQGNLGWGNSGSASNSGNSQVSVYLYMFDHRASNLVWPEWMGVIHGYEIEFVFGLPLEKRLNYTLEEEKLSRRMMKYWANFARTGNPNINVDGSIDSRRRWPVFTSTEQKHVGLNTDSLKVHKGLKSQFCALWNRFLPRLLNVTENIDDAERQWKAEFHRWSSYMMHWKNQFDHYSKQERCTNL
Experimental: The compounds were further tested for their ability to inhibit AChE in vitro [24].
Acetylcholine esterase (AChE) assay
Determination of AChE activity was based on the original method by Ellman adapted for 384 well plate format. The plates were first pre-spotted with 20 nL of 10 mM DMSO solution of the compound with the use of ECHO 550® liquid handler (to reach 10 µM final concentration). Master mix solution was prepared alongside and kept on ice until dispensed in the wells. The mix consisted of 1.5 mM acetylthiocholine iodide (ATCI), 1.5 mM 5,5-dithiobis(2-nitrobenzoic acid) (DTNB) and 30 mU/mL AChE from Electrophorus electricus (Sigma-Aldrich, Germany) in 50 mM TRIS-Cl buffer, pH 7.5, containing 0.04% BSA, 50 mM NaCl and 10 mM MgCl2. 20 µL of the master mix was then dispensed into the wells of a transparent flat-bottom 384-well plate (Nunc). The microplate was briefly but vigorously mixed on an orbital shaker and placed into a Tecan SPARK microplate reader where the absorbance at 405 nm was continuously monitored for 25 min (linear range). In parallel, the no-enzyme control reaction was run to exclude interference of the compounds with the assay. The background value was subtracted from the signal of the enzyme-containing wells. Enzyme inhibition was expressed as a signal percentage compared to an uninhibited reaction at t = 25 min: % residual activity = (A405 sample/A405 control) × 100. […]
were analysed with the use of Prism 9 (GraphPad Inc., San Diego, USA). The values were measured in triplicates, and the results are p resented as means ± SD. […]

SMILES	AChE residual activity at 10 µM (% of untreated) [1]	other results
Cc1cc2c(C)c(=O)oc-2co1 [Compound 3, reference compound]		IC50 (AChE): 370 ± 20 nM; inhibition effects on AChE (AChE): submicromolar
Cc1c2ccscc-2oc1=O [Compound 8, 3-methyl-2H-thiopyrano[3,4-b]furan-2-one]		IC50 (AChE): 80 ± 6 nM; inhibition effects on AChE (AChE): submicromolar; IC50 (MAO-B): 30 nM; germination activity (seed germination): lower germination activity than KAR1
Cc1c2ccocc-2oc1=S [Compound 9]	95 ± 8 % of untreated	
S=c1cc2ccocc-2o1 [Compound 10]	99 ± 3 % of untreated	
Cc1cc2c(C)c(=S)oc-2co1 [Compound 11]	93 ± 3 % of untreated	
Cc1occc2c(C)c(=S)oc1-2 [Compound 12]	91 ± 2 % of untreated	
Cc1cc2c(C)c(=O)oc-2cs1 [Compound 20]	90 ± 2 % of untreated	
Cc1sccc2c(C)c(=O)oc1-2 [Compound 21]	91 ± 2 % of untreated	
O=c1cc2ccscc-2o1 [Compound 26]	99 ± 0.4 % of untreated	
Cc1c2ccscc-2oc1=S [Compound 27]	97 ± 5 % of untreated	
Cc1cc2c(C)c(=S)oc-2cs1 [Compound 28]	85 ± 1 % of untreated	inhibition at 10 µM [1]: ~15%
Cc1sccc2c(C)c(=S)oc1-2 [Compound 29]	86 ± 2 % of untreated	inhibition at 10 µM [1]: ~15%
S=c1cc2ccscc-2o1 [Compound 30]	92 ± 1 % of untreated	
